In publication PMC5279725 (PLoS ONE, 2017):

Assays:
[1] = test system: MPO in CF sputum sol; test: MPO peroxidase activity (TMB) in CF sputum sol ± neutrophils (PMN), heat-killed P. aeruginosa or heat-aggregated IgG; type: biochemical; conditions: CF sol only, + killed P. aeruginosa, + Agg IgG
Description: To these samples were added 1×10^6 neutrophils for 1 hour at 37°C. These samples were then analyzed for MPO peroxidase activity by TMB assay, described below.
(§1) To measure MPO peroxidase activity using TMB, 20 μl of assay supernatant, CF sol, or neutrophil lysate was serially diluted and then combined with 100 μl of TMB in a non-treated 96-well plate followed by 100 μl of 2.5 N H2SO4 (stop buffer) and absorbance was read at 450 nm. For MPO functional assays using ABTS, 150 μl of ABTS solution was added to each sample and incubated for 5 minutes before adding 100 μl of 1% SDS to stop the reaction. Absorbance was read at 405 nm. O-dianisidine working solution was prepared by making a 0.166 mg/ml solution in 50 mM phosphate-citrate buffer, pH 5.0 with a final of 0.006% H2O2 added immediately before use. For MPO measurements, 100 μl of the prepared O-dianisidine solution was added to each sample and incubated for 2 minutes before adding 100 μl of 2.5 N H2SO4 to stop the reaction. Absorbance was read at 405 nm.

[2] = test system: MPO in CF sputum sols; test: MPO peroxidase activity (TMB) in 14 clinical CF sputum sols; type: biochemical
Description: Expectorated sputum samples were collected in sterile containers and immediately placed on ice. The soluble fraction (sol) was extracted as a supernatant of free flowing liquid after cold (4°C) centrifugation at 14,000 g for 60 minutes, similar to previously described methods. Due to the normal differences in CF sputum viscosity, sol fractions were not normalized for protein content consistent with previously described methods.
as §1

[3] = test system: MPO in CF sputum sol; test: PIC1 dose-response on MPO activity (TMB) in CF sputum sol #2m; type: biochemical
Description: as §1

[4] = test system: MPO in CF sol; test: pH effect on MPO peroxidase activity (TMB) in CF sol; type: biochemical; conditions: PIC1 7.5 mM (pH 4.7) vs sol acidified to pH 4.0
Description: Assays of pH effect on MPO peroxidase activity in CF sols was performed by adjusting one representative CF sol, initially at a pH of 7.0, to pH values of 6.0, 5.0, and 4.0 using H2SO4. […] TMB was added after 5 minutes.
as §1

[5] = test system: MPO in neutrophil lysate; test: MPO peroxidase activity (TMB) in neutrophil lysate; type: biochemical; conditions: 0.9 mM PIC1 vs no PIC1, n = 4, P < 0.001
Description: Neutrophils from the blood of healthy volunteers were purified from heparinized blood by Hypaque-Ficoll step gradient centrifugation, dextran sedimentation, and hypotonic lysis, as previously described. Neutrophils were adjusted to 1×10^7 cells/ml for the functional studies. Neutrophils were sedimented, lysed in 1% Triton X-100, and 1×10^6 cell/ml equivalent aliquots were used for neutrophil lysate assays.
(§2) MPO peroxidase activity utilizing pure MPO was assayed by combing the MPO solution, diluted to 160 nM with PBS buffer, with an inhibitor, at denoted concentrations, in a 1:1 ratio (v/v) for 1 min. prior to adding TMB.
as §1, with “For MPO measurements, 100 μl of the prepared O-dianisidine solution was added to each sample and incubated for 2 minutes before adding 100 μl of 2.5 N H2SO4 to stop the reaction.” left out

[6] = test system: purified MPO; test: Purified MPO oxidation of TMB; type: biochemical
Description: as §2, §1

[7] = test system: purified MPO; test: Purified MPO oxidation of ABTS; type: biochemical; conditions: PIC1 0.5–0.9 mM
Description: as §2, §1

[8] = test system: purified MPO; test: Purified MPO oxidation of O-dianisidine; type: biochemical; conditions: PIC1 0.5–0.9 mM
Description: as §2, §1

[9] = test system: purified MPO; test: Dose-response inhibition of pure MPO at various MPO concentrations; type: biochemical
Description: as §1

[10] = test system: MPO heme ring; test: Spectral analysis of MPO heme ring with H2O2; conditions: 2.5 mM PIC1, 200 μM H2O2
Description: (§3) As each component is added to the MPO it is allowed to incubate for 5 minutes. […] Absorbance values were recorded from 300–550 nm.

[11] = test system: MPO heme ring; test: Spectral analysis of MPO heme ring with bleach (NaOCl); conditions: 2 μM MPO, 2.5 mM PIC1, bleach 1:1000, n = 2
Description: as §3

[12] = test system: MPO; test: Ferrozine assay of Fe release from MPO in the presence of bleach; conditions: 2 μM MPO, 2.5 mM PIC1, bleach 1:1000; 562 nm
Description: Iron release from MPO was measured utilizing a ferrozine assay. After the absorbance spectra was recorded, 100 μl of ascorbic acid (100 mM) was added to each sample and allowed to incubate for 5 minutes. Then 50 μl of ammonium acetate (16%) and 50 μl of ferrozine (16 mM) were added to the samples and mixed. After incubating for 5 minutes, absorbance was measured at 562 nm. A standard curve was prepared using ammonium Fe(III) sulfate and a linear regression was used to calculate the free iron concentration.

[13] = Reversal/inhibition of TMB oxidation, PIC1 added before TMB or after TMB incubated with MPO; type: biochemical; conditions: PIC1 added after MPO and TMB had incubated
Description: We then tested whether PIC1 could reverse the oxidized state of TMB after incubation with MPO.

[14] = Anti-oxidant assay: TMB oxidized by solid-phase MPO, transferred to uncoated well; type: biochemical; conditions: absorbance 450 nm, n = 4, P = 0.02
Description: Pure MPO was coated onto an Immunlon-2 96 well plate at 24 μg/ml in carbonate buffer overnight at 4°C. The plate was washed to remove unbound protein with PBS and 0.05% Tween, and then 100 μl of TMB was added. […] After 1 minute, 100 μl of 2.5 N H2SO4 was added to stop the reaction and absorbance was read at 450 nm.

[15] = test system: C1q; conditions: cited from earlier work
[16] = test system: complement activation; conditions: cited from earlier work
Description: DMSO as a diluent decreas ...

[17] = cited from earlier work
Description: Evidence from previous investigators implicate MPO as a major contributor to CF lung damage, which is consistent with MPO being the most prevalent peroxidase in neutrophils and the clear role of neutrophils mediating lung destruction in CF.

For IALILEPICCQERAA-dPEG24 [PIC1], which “MPO oxidation of TMB” value [1] is on record?
Its value is “dramatically inhibited MPO oxidation of TMB in all conditions”.

And the “median MPO activity after PIC1” value ([2]; 7.5 mM PIC1, 14 CF sputum samples, as number of neutrophils lysed to yield equivalent TMB oxidation, baseline median 94.0, P = 0.02)?
Its value is 27.9.

What about the “decrease in median MPO activity” value ([2]; 7.5 mM PIC1, 14 CF sputum samples, vs baseline, P = 0.02) of the same substance?
The value was 3.4 fold.

What about the “change in MPO activity” value ([2]; 7.5 mM PIC1, each of 14 samples) of the same substance?
Its value is “decrease in MPO activity”.

What about the MPO-postPIC1 median ([2]; PIC1 7.5 mM, 14 samples, MPO-pre median 93.975) of the same substance?
The MPO-postPIC1 median was 27.935 x 10E6.

And the MPO-postPIC1 ([2]; PIC1 7.5 mM, sample 1e, MPO-pre 117.41)?
The MPO-postPIC1 was 30.1 x 10E6.

What about the MPO-postPIC1 ([2]; PIC1 7.5 mM, sample 2j, MPO-pre 17.29) of the same substance?
The MPO-postPIC1 was 0 x 10E6.

What about the MPO-postPIC1 ([2]; PIC1 7.5 mM, sample 2m, MPO-pre 158.85) of the same substance?
The MPO-postPIC1 was 43.21 x 10E6.

What about the MPO-postPIC1 ([2]; PIC1 7.5 mM, sample 3i, MPO-pre 1117.64) of the same substance?
The MPO-postPIC1 was 493.15 x 10E6.

And the MPO-postPIC1 ([2]; PIC1 7.5 mM, sample 4a, MPO-pre 7.9)?
Its MPO-postPIC1 is 0 x 10E6.

What about the MPO-postPIC1 ([2]; PIC1 7.5 mM, sample 5e, MPO-pre 305.93) of the same substance?
The MPO-postPIC1 was 173.21 x 10E6.

And the MPO-postPIC1 ([2]; PIC1 7.5 mM, sample 10g, MPO-pre 71.54)?
Its MPO-postPIC1 is 19.09 x 10E6.

What about the MPO-postPIC1 ([2]; PIC1 7.5 mM, sample 15e, MPO-pre 55.77) of the same substance?
Its MPO-postPIC1 is 12.92 x 10E6.

And the MPO-postPIC1 ([2]; PIC1 7.5 mM, sample 17c, MPO-pre 77.44)?
The MPO-postPIC1 was 25.77 x 10E6.

And the MPO-postPIC1 ([2]; PIC1 7.5 mM, sample 28a, MPO-pre 325.09)?
Its MPO-postPIC1 is 297.05 x 10E6.

And the MPO-postPIC1 ([2]; PIC1 7.5 mM, sample 29e, MPO-pre 110.51)?
The MPO-postPIC1 was 43.24 x 10E6.

And the MPO-postPIC1 ([2]; PIC1 7.5 mM, sample 34j, MPO-pre 68.92)?
The MPO-postPIC1 was 16.55 x 10E6.

And the MPO-postPIC1 ([2]; PIC1 7.5 mM, sample 1d, MPO-pre 229)?
Its MPO-postPIC1 is 214.65 x 10E6.

And the MPO-postPIC1 ([2]; PIC1 7.5 mM, sample 9d, MPO-pre 34.41)?
Its MPO-postPIC1 is 0 x 10E6.

And the “reduction in MPO activity” value ([3]; 7.5 mM PIC1 vs no PIC1, n = 3, P = 0.001)?
The value was 11.5 fold.

And the “inhibition of MPO activity” value ([3]; PIC1 titration)?
Its value is “dose-dependent inhibition of MPO activity”.

What about the “role of acidification in MPO inhibition” value [4] of the same substance?
Its value is “not mediated by acidification of the sol”.

What about the “inhibition of MPO activity” value [5] of the same substance?
The value was 12.5 fold.

What about the “inhibition of purified MPO oxidation of TMB” value ([6]; 0.9 mM PIC1, MPO 80 nM, n = 3, P < 0.001) of the same substance?
The value was 28 fold.

What about the “improvement in MPO inhibition compared with ABAH” value ([6]; 0.9 mM, TMB, P = 0.002) of the same substance?
The value was 7 fold.

What about the “inhibition of purified MPO oxidation of ABTS” value [7] of the same substance?
The value was “dramatically inhibited”.

What about the “inhibition of purified MPO oxidation of O-dianisidine” value [8] of the same substance?
The value was “dramatically inhibited”.

And the “inhibition of MPO peroxidase activity” value ([9]; 0.5 mM PIC1, 20 μM MPO, P < 0.001)?
Its value is 5.4 fold.

What about the “inhibition of MPO peroxidase activity” value ([9]; MPO concentrations up to 80 μM) of the same substance?
The value was “Concentration dependent PIC1 inhibition of MPO peroxidase activity”.

What about the heme ring protection [10] of the same substance?
The heme ring protection was “able to inhibit oxidative damage to the heme ring and alteration of the iron charge state”.

What about the “protection of MPO from bleach” value [11] of the same substance?
Its value is “largely protected from the oxidative effects of bleach”.

And the “bleach-mediated iron release from MPO” value [12]?
The value was “able to prevent bleach-mediated release of iron from MPO”.

What about the “reversal of TMB oxidation” value [13] of the same substance?
Its value is “the color change was reversed and the absorbance value was minimal”.

And the “reduction in oxidized TMB” value [14]?
Its value is 20 fold.

And the C1 enzymatic activation [15]?
The C1 enzymatic activation was “inhibits enzymatic activation”.

What about the C1q binding affinity ([15]; similar to C1r-C1s-C1s-C1r tetramer) of the same substance?
The C1q binding affinity was “nanomolar affinity”.

And the “P. aeruginosa-initiated complement activation” value ([16]; CF sputum sols)?
Its value is “can inhibit P. aeruginosa-initiated complement activation”.

And the C5a generation ([16]; CF sputum soluble fraction)?
The C5a generation was “can inhibit P. aeruginosa-mediated generation of the pro-inflammatory anaphylatoxin C5a”.

And the aqueous solubility [17]?
The aqueous solubility was “excellent aqueous solubility”.

What about the tolerability in vivo [17] of the same substance?
Its tolerability in vivo is “well tolerated in vivo”.
